The target in one assay is T1, SOS1 (Homo sapiens, UniProt Q07889).
T1 construct: HIS-SOS1cat (160 nM; Cytoskeleton, US); His (N); purchased Cytoskeleton
T1 sequence (Q07889 564-1049 limits assumed): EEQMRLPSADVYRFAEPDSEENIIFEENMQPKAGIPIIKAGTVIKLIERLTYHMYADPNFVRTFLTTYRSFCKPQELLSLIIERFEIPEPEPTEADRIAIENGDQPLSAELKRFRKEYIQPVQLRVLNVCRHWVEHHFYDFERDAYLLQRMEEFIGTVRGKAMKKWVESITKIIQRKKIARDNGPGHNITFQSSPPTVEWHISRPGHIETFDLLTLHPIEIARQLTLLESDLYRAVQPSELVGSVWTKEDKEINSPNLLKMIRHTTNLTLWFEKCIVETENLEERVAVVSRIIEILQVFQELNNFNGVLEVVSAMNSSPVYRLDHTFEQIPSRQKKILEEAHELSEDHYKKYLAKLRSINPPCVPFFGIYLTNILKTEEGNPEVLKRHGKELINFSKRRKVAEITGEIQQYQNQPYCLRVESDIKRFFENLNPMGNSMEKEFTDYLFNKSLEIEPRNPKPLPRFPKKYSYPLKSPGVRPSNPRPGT
As to the kind of experiment: SOS-catalyzed nucleotide exchange assay (HTRF, SOS1-mediated GTP loading of KRAS G12D). The class given is biochemical. For orientation: TR-FRET usually uses a lanthanide donor and a delayed reading to cut background.

The target of a further assay is T2, KRAS G12C::SOS1 (Homo sapiens, UniProt Q07889).
T2 construct: purchased CISBIO 64KRASG12PEH
T2 sequence (Q07889 1-1333): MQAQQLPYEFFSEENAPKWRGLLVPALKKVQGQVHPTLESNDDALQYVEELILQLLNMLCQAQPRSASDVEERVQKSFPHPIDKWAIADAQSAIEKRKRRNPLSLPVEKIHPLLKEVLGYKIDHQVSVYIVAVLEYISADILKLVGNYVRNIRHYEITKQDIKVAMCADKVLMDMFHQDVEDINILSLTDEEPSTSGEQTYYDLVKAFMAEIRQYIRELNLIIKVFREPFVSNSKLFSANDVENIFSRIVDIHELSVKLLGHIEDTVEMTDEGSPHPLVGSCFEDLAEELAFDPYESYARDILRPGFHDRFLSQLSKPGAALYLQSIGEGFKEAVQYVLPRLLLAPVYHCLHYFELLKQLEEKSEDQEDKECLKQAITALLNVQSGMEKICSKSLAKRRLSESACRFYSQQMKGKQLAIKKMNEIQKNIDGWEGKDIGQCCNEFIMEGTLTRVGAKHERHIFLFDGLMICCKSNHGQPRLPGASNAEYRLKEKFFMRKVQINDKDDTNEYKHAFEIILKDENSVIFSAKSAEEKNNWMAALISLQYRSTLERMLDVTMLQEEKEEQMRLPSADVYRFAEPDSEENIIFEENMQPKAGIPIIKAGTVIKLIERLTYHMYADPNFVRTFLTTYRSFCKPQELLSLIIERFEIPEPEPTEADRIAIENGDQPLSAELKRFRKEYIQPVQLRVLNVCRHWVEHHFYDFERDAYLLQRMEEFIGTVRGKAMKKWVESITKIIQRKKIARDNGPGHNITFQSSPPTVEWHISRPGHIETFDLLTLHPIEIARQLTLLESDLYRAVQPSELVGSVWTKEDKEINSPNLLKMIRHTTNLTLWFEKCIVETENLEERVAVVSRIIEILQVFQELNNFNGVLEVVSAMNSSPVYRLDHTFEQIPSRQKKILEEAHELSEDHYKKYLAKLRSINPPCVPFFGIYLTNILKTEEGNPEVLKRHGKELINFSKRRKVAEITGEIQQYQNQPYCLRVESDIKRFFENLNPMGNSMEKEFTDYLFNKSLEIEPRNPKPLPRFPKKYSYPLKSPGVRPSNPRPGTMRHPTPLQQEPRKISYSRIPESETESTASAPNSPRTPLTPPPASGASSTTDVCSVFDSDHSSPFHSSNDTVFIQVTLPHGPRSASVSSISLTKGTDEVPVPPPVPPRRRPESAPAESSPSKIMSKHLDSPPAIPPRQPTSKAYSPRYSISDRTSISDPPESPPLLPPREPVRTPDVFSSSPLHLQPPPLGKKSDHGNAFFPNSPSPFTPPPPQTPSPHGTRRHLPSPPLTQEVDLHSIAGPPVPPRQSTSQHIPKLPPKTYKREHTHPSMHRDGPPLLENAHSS
As to the kind of experiment: KRAS G12C::SOS1 protein-protein interaction (PPI) inhibition assay (HTRF). The class given is binding. The essentials: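 Compounds, at eight 3-fold dilutions from 3 µM, were mixed with GTP-loaded Tag1-KRAS G12C, Tag2-SOS1 and a terbium-cryptate donor plus XL665 acceptor antibody pair. After 2 h at room temperature, time-resolved FRET reported the KRAS–SOS1 interaction.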

[1] abbreviates: GST-KRAS G12D, HIS-SOS1cat, compound 128 pM to 10 µM, read-out: SOS-catalyzed nucleotide exchange assay.
Setting [2] is: 8 concentrations from 3 µM, three replicates, read-out: KRAS G12C::SOS1 PPI.

Like-named read-outs stand apart in the source and are kept apart here. Where only a bound is given, the exact number is not on record here.

The text below walks through data of patent publication EP4667464A1 (Cyrus Therapeutics Inc., priority 2023, dated 2024).

Take `C[C@@H](NC(=O)c1ccc(=O)n(-c2cncc(-c3cnnn3C3COC3)c2)n1)c1cccc(C(F)(F)F)c1F` [Example 1-57, 1-[5-[1-(oxetan-3-yl)triazol-5-yl]-3-pyridyl]-6-oxo-N-[(1R)-1-[2-fluoro-3-(trifluoromethyl)phenyl]ethyl]pyridazine-3-carboxamide]: the IC50 on SOS1 (setting [1]) was less than 50 nM; at KRAS G12C::SOS1 (setting [2]), 50 to 150 nM.
Turning to `C[C@@H](NC(=O)c1cc(C(C)(C)O)c(=O)n(-c2cncc(-c3cnnn3C)c2)n1)c1cccc(C(F)(F)F)c1F` [Example 1-59, (R)-N-(1-(2-fluoro-3-(trifluoromethyl)phenyl)ethyl)-5-(2-hydroxypropane-2-yl)-1-(5-(1-methyl-1H-1,2,3-triazol-5-yl)pyridin-3-yl)-6-oxo-1,6-dihydropyridazine-3-carboxamide], the values for the IC50 on SOS1 (setting [1]) and on KRAS G12C::SOS1 (setting [2]) were less than 50 nM and 50 to 150 nM, respectively.
With `[2H]C([2H])([2H])[C@@H](NC(=O)c1ccc(=O)n(-c2cncc(-c3cnnn3C3CC3)c2)n1)c1cccc(C(F)(F)CO)c1F` [Example 1-60, 1-[5-(1-cyclopropyl-1H-1,2,3-triazol-5-yl)-3-pyridyl]-6-oxo-N-[(1R)-2,2,2-trideuterio-1-[3-(1,1-difluoro-2-hydroxy-ethyl)-2-fluoro-phenyl]ethyl]pyridazine-3-carboxamide], the IC50 on SOS1 (setting [1]) and on KRAS G12C::SOS1 (setting [2]) was less than 50 nM in each case.
For `C[C@@H](NC(=O)c1cc(C2CCCCC2)c(=O)n(-c2cncc(-c3cnnn3C)c2)n1)c1cccc(C(F)(F)F)c1F` [Example 1-65, N-{(R)-1-[2-fluoro-3-(trifluoromethyl)phenyl]ethyl}-5-cyclohexyl-1-[5-(1-methyl-1H-1,2,3-triazol-5-yl)-3-pyridyl]-6-oxo-1,6-dihydropyridazine-3-carboxamide], the IC50 was greater than 150 nM on SOS1 (setting [1]) and 50 to 150 nM on KRAS G12C::SOS1 (setting [2]).
In the case of `CCc1cc(C(=O)N[C@H](C)c2cccc(C(F)(F)F)c2F)nn(-c2cncc(-c3cnnn3C)c2)c1=O` [Example 1-66, N-{(R)-1-[2-fluoro-3-(trifluoromethyl)phenyl]ethyl}-5-ethyl-1-[5-(1-methyl-1H-1,2,3-triazol-5-yl)-3-pyridyl]-6-oxo-1,6-dihydropyridazine-3-carboxamide], the IC50 was 50 to 150 nM on SOS1 (setting [1]) and less than 50 nM at KRAS G12C::SOS1 (setting [2]).
The corresponding values for `C[C@@H](NC(=O)c1ccc(=O)n(-c2cncc(-c3cnnn3C3CC3)c2)c1)c1cccc(C(F)(F)F)c1F` [Example 1-68, 1-[5-(1-cyclopropyl-1H-1,2,3-triazol-5-yl)-3-pyridyl]-N-[(1R)-1-[2-fluoro-3-(trifluoromethyl)phenyl]ethyl]-2-oxo-2H-[1,3'-bipyridine]-5-carboxamide] are less than 50 nM and less than 50 nM.
Taken in the same sequence, the figures for `C[C@@H](NC(=O)c1cc(C(F)(F)F)c(=O)n(-c2cncc(-c3cnnn3C)c2)n1)c1cccc(C(F)(F)F)c1F` [Example 1-69, N-[(R)-1-[2-fluoro-3-(trifluoromethyl)phenyl]ethyl]-1-[5-(1-methyl-1H-1,2,3-triazol-5-yl)-3-pyridyl]-6-oxo-5-(trifluoromethyl)-pyridazine-3-carboxamide] were 50 to 150 nM and less than 50 nM.
As to `Cc1c([C@@H](C)NC(=O)c2ccc(=O)n(-c3cncc(-c4cnnn4C)c3)n2)cc(N)cc1C(F)(F)F` [Example 2-2, N-[(1R)-1-[5-amino-2-methyl-3-(trifluoromethyl)phenyl]ethyl]-1-[5-(3-methyltriazol-4-yl)-3-pyridyl]-6-oxo-pyridazine-3-carboxamide], the IC50 on SOS1 (setting [1]) and on KRAS G12C::SOS1 (setting [2]) was less than 50 nM each time.
As to `C[C@@H](NC(=O)c1cc(C#N)c(=O)n(-c2cncc(-c3cnnn3C)c2)n1)c1cccc(C(F)(F)CO)c1F` [Example 3, 5-cyano-N-[(1R)-1-[3-(1,1-difluoro-2-hydroxy-ethyl)-2-fluorophenyl]ethyl]-1-[5-(3-methyltriazol-4-yl)-3-pyridyl]-6-oxo-pyridazine-3-carboxamide], the IC50 at SOS1 and on KRAS G12C::SOS1 was greater than 150 nM throughout.
Take `C[C@@H](NC(=O)c1cc(C#N)c(=O)n(-c2cncc(-c3cnnn3C)c2)n1)c1cccc(C(F)F)c1F` [Example 3-1, 5-cyano-N-[(1R)-1-[3-(difluoromethyl)-2-fluorophenyl]ethyl]-1-[5-(1-methyl-1H-1,2,3-triazol-5-yl)pyridin-3-yl]-6-oxo-1,6-dihydropyridazine-3-carboxamide]: the IC50 on SOS1 (setting [1]) is 50 to 150 nM; on KRAS G12C::SOS1 (setting [2]), greater than 150 nM.
Regarding `C[C@@H](NC(=O)c1cc(C#N)c(=O)n(-c2cc(-c3cnnn3C)cnc2F)n1)c1cccc(C(F)(F)CO)c1F` [Example 3-3], the IC50 at SOS1 (setting [1]) and on KRAS G12C::SOS1 (setting [2]) was less than 50 nM throughout.
Regarding `C[C@@H](NC(=O)c1cc(C#N)c(=O)n(-c2cc(-c3cnnn3C3CC3)cnc2F)n1)c1cccc(C(F)(F)F)c1F` [Example 3-4, 5-cyano-N-[(1R)-1-[2-fluoro-3-(trifluoromethyl)phenyl]ethyl]-1-(5-(1-cyclopropyl-1H-1,2,3-triazol-5-yl)-2-fluoropyridin-3-yl)-6-oxo-1,6-dihydropyridazine-3-carboxamide], the IC50 on SOS1 (setting [1]) and at KRAS G12C::SOS1 (setting [2]) was 50 to 150 nM each time.
As for `[2H]C([2H])([2H])n1nncc1-c1cnc(F)c(-n2nc(C(=O)N[C@H](C)c3cccc(C(F)(F)F)c3F)cc(C#N)c2=O)c1` [Example 3-5, 5-cyano-N-[(1R)-1-(2-fluoro-3-(trifluoromethyl)phenyl)ethyl]-1-[2-fluoro-5-(1-(methyl-trideuterio)-1H-1,2,3-triazol-5-yl)pyridin-3-yl]-6-oxo-1,6-dihydropyridazine-3-carboxamide], the IC50 at SOS1 (setting [1]) and at KRAS G12C::SOS1 (setting [2]) was 50 to 150 nM each time.
For the molecule `C[C@@H](NC(=O)c1ccc(=O)n(-c2cnnc(-c3cnnn3C)c2)n1)c1cccc(C(F)F)c1F` [Example 5, N-[(1R)-1-[2-fluoro-3-(difluoromethyl)phenyl]ethyl]-1-[6-(3-methyltriazol-4-yl)pyridazin-4-yl]-6-oxo-pyridazine-3-carboxamide], the IC50 at SOS1 and on KRAS G12C::SOS1 was greater than 150 nM each time.
On to `C[C@@H](NC(=O)c1ccc(=O)n(-c2cnc(F)c(-c3cnnn3C)c2)n1)c1cccc(C(F)F)c1F` [Example 6-1, N-{(1R)-1-(3-(difluoromethyl)-2-fluorophenyl)ethyl}-1-(6-fluoro-5-(1-methyl-1H-1,2,3-triazol-5-yl)pyridin-3-yl)-6-oxo-1,6-dihydropyridazine-3-carboxamide], for which the IC50 at SOS1 (setting [1]) is 50 to 150 nM; at KRAS G12C::SOS1 (setting [2]), greater than 150 nM.
Turning to `C[C@@H](NC(=O)c1ccc(=O)n(-c2cc(-c3cnnn3C3CC3)cnc2F)n1)c1cccc(C(F)(F)CO)c1F` [Example 6-8], the IC50 against SOS1 and against KRAS G12C::SOS1 was less than 50 nM throughout.
For the molecule `C[C@@H](NC(=O)c1ccc(=O)n(-c2cncc(-c3cnnn3[C@@H]3CCNC3)c2)n1)c1cccc(C(F)(F)F)c1F` [Example 6-9, N-{(R)-1-[2-fluoro-3-(trifluoromethyl)phenyl]ethyl}-6-oxo-1-(5-(1-((R)-pyrrolidin-3-yl)-1H-1,2,3-triazol-5-yl)pyridin-3-yl)-1,6-dihydropyridazine-3-carboxamide], the IC50 on SOS1 (setting [1]) and at KRAS G12C::SOS1 (setting [2]) was less than 50 nM in each case.
